pIC50: −log10 of the molar value.
The compounds below were run against Aldo-keto reductase family 1 member B1 (Homo sapiens, UniProt P15121) (assay: Inhibition of Homo sapiens (human) aldose reductase).

SMILES	pIC50
Cc1ccc(C(=O)c2ccc(CC(=O)O)n2C)cc1 [TOLMETIN]	5.62
CC1=C(CC(=O)O)c2cc(F)ccc2/C1=C\c1ccc([S+](C)[O-])cc1 (stereo not given) [SULINDAC]	6.43

Each compound was assayed against Aldo-keto reductase family 1 member B1 (Rattus norvegicus, UniProt P07943) (assay: Inhibition of Rattus norvegicus (rat) lens aldose reductase).

SMILES	pIC50
COc1ccc(O)c(C(=O)/C=C/c2ccc(O)cc2)c1	5.50
COc1ccc(/C=C/C(=O)c2cc(Cl)ccc2O)cc1	4.83
O=C(/C=C/c1ccc(O)c(O)c1O)c1ccc(O)cc1O	6.12
O=C(/C=C/c1ccccc1O)c1cc(Cl)ccc1O	5.90
COc1ccc(/C=C/C(=O)c2ccc(O)cc2O)cc1	6.03
O=C(/C=C/c1ccc(O)cc1)c1ccccc1O	5.37
O=C(/C=C/c1ccccc1O)c1ccc(O)cc1O	6.42
O=C(/C=C/c1ccc([N+](=O)[O-])cc1)c1ccc(O)cc1O	5.49
O=C(/C=C/c1cc(O)ccc1O)c1ccc(O)cc1O	6.24
Cc1ccc(/C=C/C(=O)c2cc(Cl)ccc2O)c(C)c1	5.11
COc1ccc(/C=C/C(=O)c2cc(Cl)ccc2O)cc1F	4.96
COc1cccc(O)c1C(=O)/C=C/c1ccc(O)cc1	5.49
O=C(/C=C/c1ccc(O)cc1)c1ccc(O)cc1O [ISOLIQUIRITIGENIN]	6.40
Cc1ccc(/C=C/C(=O)c2ccc(O)cc2O)c(C)c1	6.40
COc1ccc(/C=C/C(=O)c2ccc(O)cc2O)cc1F	6.04
O=C(/C=C/c1ccc(O)cc1)c1cc(O)ccc1O	5.27
O=C(/C=C/c1ccc(O)c(O)c1)c1cc(Cl)ccc1O	6.26
Cc1ccc(/C=C/C(=O)c2ccc(O)cc2O)cc1	6.09
CN(C)c1ccc(/C=C/C(=O)c2ccc(O)cc2O)cc1	5.94

SMILES	pIC50
COc1ccc(/C=C/C(=O)c2ccc(O)cc2O)cc1OC	5.98
O=C(/C=C/c1ccc(Cl)c(Cl)c1)c1ccc(O)cc1O	5.92
O=C(/C=C/c1ccc(O)cc1)c1cc(Br)ccc1O	5.67
Cc1ccc(O)c(C(=O)/C=C/c2ccc(O)cc2)c1	5.36
O=C(/C=C/c1ccc(O)cc1O)c1ccc(O)cc1O	6.80
O=C(/C=C/c1ccc(O)cc1)c1cc(Cl)ccc1O	6.00
COc1ccc(/C=C/C(=O)c2cc(Cl)ccc2O)c(OC)c1OC	5.09
COc1ccc(C(=O)/C=C/c2ccc(O)cc2)c(O)c1	5.28
O=C(/C=C/c1ccc(Br)cc1)c1ccc(O)cc1O	5.95
O=C(/C=C/c1ccc(O)c(O)c1)c1ccc(O)cc1O [BUTEIN]	6.35
Cc1ccc(/C=C/C(=O)c2cc(Cl)ccc2O)cc1	5.01
Cc1cccc(/C=C/C(=O)c2cc(Cl)ccc2O)c1	4.99
O=C(/C=C/c1cccc(O)c1)c1cc(Cl)ccc1O	4.98
O=C(/C=C/c1ccc(Cl)cc1)c1cc(Cl)ccc1O	4.86
COc1ccc(/C=C/C(=O)c2cc(Cl)ccc2O)cc1OC	4.93
O=C(/C=C/c1ccccc1)c1ccc(O)cc1O [2',4'-DIHYDROXYCHALCONE]	6.00
O=C(/C=C/c1ccc(O)c(O)c1O)c1cc(Cl)ccc1O	5.65
O=C(/C=C/c1ccccc1)c1cc(Cl)ccc1O	4.94
O=C(/C=C/c1ccc(O)cc1O)c1cc(Cl)ccc1O	6.07

From ChEMBL document CHEMBL3046187, “Challenges in docking 2-hydroxy and 2,4-dihydroxychalcones into the binding site of ALR2” (Med Chem Res, 2013)
